Measurements taken from patent US7741488B2, “Tetrahydropyridothiophenes as antiproliferative agents for the treatment of cancer” (4SC AG, priority 2005, dated 2010).

How the values were obtained:
[1] = system: RKOp27 colon adenocarcinoma cells arrested by expression of ectopic p27Kip1; experiment: Alamar Blue cell viability assay on RKO p27 cells arrested by Ponasterone A induced p27Kip1 (cell cycle specific mode of action); type: cell-based; details: Homo sapiens, 72 hours, cells arrested by p27Kip1 induced with 10 μM Ponasterone A
Experimental: To determine the cell cycle specific mode of action, subclones of RKO colon adenocarcinoma cells (RKOp27 or RKOp21 as described by Schmidt et al. in Oncogene 19, 2423-2429; 2000) are seeded into 96 well flat bottom plates at a density of 16000 cells per well in a volume of 50 μl per well in DMEM growth medium with 10% FCS containing 10 μM Ponasterone A. 24 hours after seeding the 50 μl each of the compound dilutions in DMEM medium are added into each well of the 96 Well plate. Each compound dilution is tested as quadruplicates. Wells containing untreated control cells are filled with 50 μl DMEM medium containing 1% DMSO. The cells are then incubated with the substances for 72 hours at 37° C. in a humidified atmosphere containing 5% carbon dioxide. To determine the viability of the cells, 10 μl of an Alamar Blue solution (Biosource) are added and the fluorescence was measured at an extinction of 544 nm and an emission of 590 nm. For the calculation of the cell viability the emission value from untreated cells is set as 100% viability and the emission rates of treated cells are set in relation to the values of untreated cells. Viabilities are expressed as % values. Viability is compared of proliferating cells grown in the absence of the inducer Ponasterone A, versus viability of cells arrested by the expression of ectopic p27Kip1 induced by Ponasterone A.

[2] = system: RKO (RKOp27) human colon adenocarcinoma cells; experiment: Alamar Blue cell viability assay, anti-proliferative/cytotoxic activity on proliferating (uninduced) RKO p27 cells; type: cell-based; details: RKOp27, 72 h, proliferating cells without inducer Ponasterone A
Experimental: The anti-proliferative/cytotoxic activity of the compounds described herein, can be tested on subclones of RKO (RKOp27) human colon adenocarcinoma cells (Schmidt et al., Oncogene 19, 2423-2429; 2000) using the Alamar Blue cell viability assay (described in O'Brien et al. Eur J Biochem 267, 5421-5426, 2000). The compounds are dissolved as 20 mM solutions in dimethylsulfoxide (DMSO) and subsequently diluted in semi-logarithmic steps. DMSO dilutions are further diluted 1:100 into Dulbecco's modified Eagle's medium (DMEM) containing 10% fetal calf serum to a final concentration twice as much as the final concentration in the test. RKO subclones are seeded into 96 well flat bottom plates at a density of 4000 cells per well in a volume of 50 μl per well. 24 hours after seeding the 50 μl each of the compound dilutions in DMEM medium are added into each well of the 96 Well plate. Each compound dilution is tested as quadruplicates. Wells containing untreated control cells are filled with 50 μl DMEM medium containing 1% DMSO. The cells are then incubated with the substances for 72 hours at 37° C. in a humidified atmosphere containing 5% carbon dioxide. To determine the viability of the cells, 10 μl of an Alamar Blue solution (Biosource) are added and the fluorescence is measured at an extinction of 544 nm and an emission of 590 nm. For the calculation of the cell viability the emission value from untreated cells is set as 100% viability and the emission rates of treated cells are set in relation to the values of untreated cells. Viabilities are expressed as % values.
The corresponding IC50 values of the compounds for anti-proliferative/cytotoxic activity are determined from the concentration-effect curves.
Representative IC50 values for anti-proliferation/cytotoxicity determined in the mentioned assay follow from the following table A, in which the numbers of the compound correspond to the numbers of the examples.

Question: What does the source list for `COc1ccccc1CCC(=O)Nc1sc2c(c1C#N)CCN(C(=O)OCc1ccncc1)C2` [Example 28, 3-Cyano-2-[3-(2-methoxy-phenyl)-propanoylamino]-4,7-dihydro-5H-thieno[2,3-c]pyridine-6-carboxylic acid pyridin-4-ylmethyl ester]?
Answer: IC50 [1]: > 100000 nM; IC50 [2]: ≤ 300 nM

Question: For `COc1cccc(CCC(=O)Nc2sc3c(c2C#N)CCN(C(=O)OCc2ccccn2)C3)c1` [Example 29, 3-Cyano-2-[3-(3-methoxy-phenyl)-propanoylamino]-4,7-dihydro-5H-thieno[2,3-c]pyridine-6-carboxylic acid pyridin-2-ylmethyl ester], which IC50 [1] is on record?
Answer: > 100000 nM

Question: And the IC50 [2]?
Answer: ≤ 300 nM

Question: How did the IC50 [1] turn out when `COc1ccccc1CCC(=O)Nc1sc2c(c1C#N)CCN(C(=O)OCC1COC(C)(C)O1)C2` (stereo not shown) [Example 30, 3-Cyano-2-[3-(2-methoxy-phenyl)-propanoylamino]-4,7-dihydro-5H-thieno[2,3-c]pyridine-6-carboxylic acid 2,2-dimethyl-[1,3]dioxolan-4-ylmethyl ester] was run?
Answer: > 100000 nM

Question: And the IC50 [2]?
Answer: ≤ 300 nM

Question: Which IC50 [1] does the source give for `COc1ccccc1CCC(=O)Nc1sc2c(c1C#N)CCN(C(=O)OCC(O)CO)C2` (stereo not shown) [Example 32, 3-Cyano-2-[3-(2-methoxy-phenyl)-propanoylamino]-4,7-dihydro-5H-thieno[2,3-c]pyridine-6-carboxylic acid 2,3-dihydroxy-propyl ester] here?
Answer: > 100000 nM

Question: What about the IC50 [2] of the same compound?
Answer: ≤ 300 nM

Question: How did the IC50 [1] turn out when `CCOc1ccccc1CCC(=O)Nc1sc2c(c1C#N)CCN(C(=O)OCC(O)CO)C2` (stereo not shown) [Example 33, 3-Cyano-2-[3-(2-ethoxy-phenyl)-propanoylamino]-4,7-dihydro-5H-thieno[2,3-c]pyridine-6-carboxylic acid 2,3-dihydroxy-propyl ester] was run?
Answer: > 100000 nM

Question: What about the IC50 [2] of the same compound?
Answer: ≤ 300 nM

Question: Which results are given for `COc1ccccc1CCC(=O)Nc1sc2c(c1C#N)CCN(C(=O)OCCO)C2` [Example 34, 3-Cyano-2-[3-(2-methoxy-phenyl)-propanoylamino]-4,7-dihydro-5H-thieno[2,3-c]pyridine-6-carboxylic acid 2-hydroxy-ethyl ester]?
Answer: IC50 [1]: > 100000 nM; IC50 [2]: ≤ 300 nM

Question: For `CCOc1ccccc1CCC(=O)Nc1sc2c(c1C#N)CCN(C(=O)OCCO)C2` [Example 35, 3-Cyano-2-[3-(2-ethoxy-phenyl)-propanoylamino]-4,7-dihydro-5H-thieno[2,3-c]pyridine-6-carboxylic acid 2-hydroxy-ethyl ester], which IC50 [1] is on record?
Answer: > 100000 nM

Question: What about the IC50 [2] of the same compound?
Answer: ≤ 300 nM

Question: Which IC50 [1] does the source give for `COc1cccc(CCC(=O)Nc2sc3c(c2C#N)CCN(C(=O)OCc2cccnc2)C3)c1` [Example 36, 3-Cyano-2-[3-(3-methoxy-phenyl)-propanoylamino]-4,7-dihydro-5H-thieno[2,3-c]pyridine-6-carboxylic acid pyridin-3-ylmethyl ester] here?
Answer: > 100000 nM

Question: What about the IC50 [2] of the same compound?
Answer: ≤ 300 nM

Question: Which results are given for `COc1cccc(CCC(=O)Nc2sc3c(c2C#N)CCN(C(=O)OCc2ccncc2)C3)c1` [Example 37, 3-Cyano-2-[3-(3-methoxy-phenyl)-propanoylamino]-4,7-dihydro-5H-thieno[2,3-c]pyridine-6-carboxylic acid pyridin-4-ylmethyl ester]?
Answer: IC50 [1]: > 100000 nM; IC50 [2]: ≤ 300 nM

Question: What does the source list for `COc1cccc(CCC(=O)Nc2sc3c(c2C#N)CCN(C(=O)OCCc2ccccn2)C3)c1` [Example 38, 3-Cyano-2-[3-(3-methoxy-phenyl)-propanoylamino]-4,7-dihydro-5H-thieno[2,3-c]pyridine-6-carboxylic acid 2-pyridin-2-yl-ethyl ester]?
Answer: IC50 [1]: > 100000 nM; IC50 [2]: 300 to 2000 nM

Question: `CCOC(=O)N1CCc2c(sc(NC(=O)CCc3ccccc3OC(F)(F)F)c2C#N)C1` [Example 39, 3-Cyano-2-[3-(2-trifluoromethoxy-phenyl)-propanoylamino]-4,7-dihydro-5H-thieno[2,3-c]pyridine-6-carboxylic acid ethyl ester] was tested. Which IC50 [1] did it give?
Answer: > 100000 nM

Question: What about the IC50 [2] of the same compound?
Answer: ≤ 300 nM

Question: For `CCOc1ccccc1CCC(=O)Nc1sc2c(c1C#N)CCN(C(=O)OCCOC)C2` [Example 40, 3-Cyano-2-[3-(2-ethoxy-phenyl)-propanoylamino]-4,7-dihydro-5H-thieno[2,3-c]pyridine-6-carboxylic acid 2-methoxy-ethyl ester], which IC50 [1] is on record?
Answer: > 100000 nM

Question: What about the IC50 [2] of the same compound?
Answer: ≤ 300 nM

Question: `CCOc1ccccc1CCC(=O)Nc1sc2c(c1C#N)CCN(C(=O)OCc1ccccn1)C2` [Example 41, 3-Cyano-2-[3-(2-ethoxy-phenyl)-propanoylamino]-4,7-dihydro-5H-thieno[2,3-c]pyridine-6-carboxylic acid pyridin-2-ylmethyl ester] was tested. Which IC50 [1] did it give?
Answer: > 100000 nM

Question: And the IC50 [2]?
Answer: ≤ 300 nM

Question: Which IC50 [1] does the source give for `CCOc1ccccc1CCC(=O)Nc1sc2c(c1C#N)CCN(C(=O)OCc1cccnc1)C2` [Example 42, 3-Cyano-2-[3-(2-ethoxy-phenyl)-propanoylamino]-4,7-dihydro-5H-thieno[2,3-c]pyridine-6-carboxylic acid pyridin-3-ylmethyl ester] here?
Answer: > 100000 nM

Question: What about the IC50 [2] of the same compound?
Answer: ≤ 300 nM

Question: With `CCOc1ccccc1CCC(=O)Nc1sc2c(c1C#N)CCN(C(=O)OCc1ccncc1)C2` [Example 43, 3-Cyano-2-[3-(2-ethoxy-phenyl)-propanoylamino]-4,7-dihydro-5H-thieno[2,3-c]pyridine-6-carboxylic acid pyridin-4-ylmethyl ester] as the compound, how does the IC50 [1] read?
Answer: ≥ 40000 nM

Question: What about the IC50 [2] of the same compound?
Answer: ≤ 300 nM

Question: Which IC50 [1] does the source give for `CCOc1ccccc1CCC(=O)Nc1sc2c(c1C#N)CCN(C(=O)OCCc1ccccn1)C2` [Example 44, 3-Cyano-2-[3-(2-ethoxy-phenyl)-propanoylamino]-4,7-dihydro-5H-thieno[2,3-c]pyridine-6-carboxylic acid 2-pyridin-2-yl-ethyl ester] here?
Answer: > 100000 nM

Question: And the IC50 [2]?
Answer: ≤ 300 nM

Question: `COCCOC(=O)N1CCc2c(sc(NC(=O)CCc3cccc(OC)c3)c2C#N)C1` [Example 45, 3-Cyano-2-[3-(3-methoxy-phenyl)-propanoylamino]-4,7-dihydro-5H-thieno[2,3-c]pyridine-6-carboxylic acid 2-methoxy-ethyl ester] was tested. Which IC50 [1] did it give?
Answer: > 100000 nM

Question: And the IC50 [2]?
Answer: ≤ 300 nM

Question: What does the source list for `COc1ccc(OC)c(CCC(=O)Nc2sc3c(c2C#N)CCN(C(=O)OCCO)C3)c1` [Example 46, 3-Cyano-2-[3-(2,5-dimethoxy-phenyl)-propanoylamino]-4,7-dihydro-5H-thieno[2,3-c]pyridine-6-carboxylic acid 2-hydroxy-ethyl ester]?
Answer: IC50 [1]: > 100000 nM; IC50 [2]: 300 to 2000 nM

Question: `COc1ccc(C)cc1CCC(=O)Nc1sc2c(c1C#N)CCN(C(=O)OCCc1ccccn1)C2` [Example 48, 3-Cyano-2-[3-(2-methoxy-5-methyl-phenyl)-propanoylamino]-4,7-dihydro-5H-thieno[2,3-c]pyridine-6-carboxylic acid 2-pyridin-2-yl-ethyl ester] was tested. Which IC50 [1] did it give?
Answer: > 100000 nM

Question: And the IC50 [2]?
Answer: 300 to 2000 nM

Question: Which IC50 [1] does the source give for `COc1ccc(OC)c(CCC(=O)Nc2sc3c(c2C#N)CCN(C(=O)OCc2cccnc2)C3)c1` [Example 50, 3-Cyano-2-[3-(2,5-dimethoxy-phenyl)-propanoylamino]-4,7-dihydro-5H-thieno[2,3-c]pyridine-6-carboxylic acid pyridin-3-ylmethyl ester] here?
Answer: > 100000 nM

Question: What about the IC50 [2] of the same compound?
Answer: 300 to 2000 nM

Question: Which IC50 [1] does the source give for `COc1ccc(C)cc1CCC(=O)Nc1sc2c(c1C#N)CCN(C(=O)OCc1cccnc1)C2` [Example 51, 3-Cyano-2-[3-(2-methoxy-5-methyl-phenyl)-propanoylamino]-4,7-dihydro-5H-thieno[2,3-c]pyridine-6-carboxylic acid pyridin-3-ylmethyl ester] here?
Answer: > 100000 nM

Question: And the IC50 [2]?
Answer: ≤ 300 nM

Question: Which results are given for `COc1ccc(C)cc1CCC(=O)Nc1sc2c(c1C#N)CCN(C(=O)OCC(O)CO)C2` (stereo not shown) [Example 52, 3-Cyano-2-[3-(2-methoxy-5-methyl-phenyl)-propanoylamino]-4,7-dihydro-5H-thieno[2,3-c]pyridine-6-carboxylic acid 2,3-dihydroxy-propyl ester]?
Answer: IC50 [1]: > 100000 nM; IC50 [2]: 300 to 2000 nM

Question: For `COc1cccc(CCC(=O)Nc2sc3c(c2C#N)CCN(C(=O)OCCO)C3)c1` [Example 53, 3-Cyano-2-[3-(3-methoxy-phenyl)-propanoylamino]-4,7-dihydro-5H-thieno[2,3-c]pyridine-6-carboxylic acid 2-hydroxy-ethyl ester], which IC50 [1] is on record?
Answer: > 100000 nM

Question: What about the IC50 [2] of the same compound?
Answer: 300 to 2000 nM
